In US10428055B2, “Substituted piperidines having GPR119 agonistic activity” (DONG-A ST CO., LTD., priority 2014, dated 2019):

Legend:
[1] = target: T1, Human GPR119 (Homo sapiens, UniProt Q8TDV5); test: Human GPR119 activation assay (cAMP, HTRF); assay type: cell-based; conditions: 1 h, HEK293 cells transiently expressing human GPR119, relative to maximum effect of OEA, read-out: hGPR119 activation ability (cAMP assay) Relative Response % vs OEA; for Emax at 0.001 µM: 1 nM; for Emax at 0.01 µM: 10 nM
T1 construct: host or cells: HEK293 (ATCC)
T1 sequence (Q8TDV5 1-335): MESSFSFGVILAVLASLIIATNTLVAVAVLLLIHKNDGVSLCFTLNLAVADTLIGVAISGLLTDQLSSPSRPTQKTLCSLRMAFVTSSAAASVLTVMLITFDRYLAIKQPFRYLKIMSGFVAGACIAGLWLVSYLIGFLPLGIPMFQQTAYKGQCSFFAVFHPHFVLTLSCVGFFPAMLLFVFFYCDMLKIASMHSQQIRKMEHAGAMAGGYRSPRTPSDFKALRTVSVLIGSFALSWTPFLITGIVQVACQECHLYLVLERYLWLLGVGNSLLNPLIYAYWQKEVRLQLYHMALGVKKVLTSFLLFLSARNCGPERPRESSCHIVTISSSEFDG
From the text: <Experimental Example 1>Human GPR119 activation assay
Human GPR119 was temporarily expressed on cells, thereby quantifying the amount of cyclic adenosine 3′,5′-monophosphate (cAMP) increased upon activating GPR119 by the compound of the present invention, using the product from Cysbio, by a method of HTRF (homogeneous time resolved fluorescence), and such quantification was used to refer to efficacy on GPR119 activation.
Human GPR119 expression vector (Origene) was overexpressed in […] renal epithelial cells (HEK293) (ATCC), and the cells were stabilized for 48 hours. With a solution of 11.1 mM glucose, 0.1% bovine serum albumin, and 0.5 mM IBMX (3-isobutyl-1-methylxanthine) which is a phosphodiesterase inhibitor being added to a KRBH (Krebs-Ringer Bicarbonate HEPES; Hou ZQ. et al., Mol Cell Endocrinol, 2008(291):71-78) buffer, the cells were pre-treated for 10 minutes. Thereafter, the cells were treated with the same solution containing a drug for 60 minutes, then the supernatant was removed, and the increase in cAMP in cells was quantified using a Cysbio cAMP HiRange kit.
As to the maximum efficacy of compounds tested, multiple concentration assessment for the compounds of the present invention was carried out, thereby assessing the relative activation level (%) to the maximum effect of oleoylethanolamide (OEA), an endogenous ligand of GPR119.

[2] = test system: C57BL/6 mouse; test: Assessment of glucose tolerance improvement effect in mouse; assay type: in vivo; conditions: 2 h; 10 mg/kg oral, 30 min before oral glucose 2 g/kg; male C57BL/6 mouse; blood glucose AUC
Protocol: <Experimental Example 2>Assessment of glucose tolerance improvement effect in mouse
As one of anti-diabetic effect indicators, the glucose tolerance improvement effect of the above compounds was evaluated in 7-week male laboratory mouse (C57BL/6 mouse), as the effect of improving postprandial glycemic control ability.
The laboratory mouse was fasted from the day before the experiment for 16-17 hours. The compound of the present invention was orally administered 30 minutes before administrating glucose, and after 30 minutes, a glucose solution (2 g/kg/10 ml) was orally administered. A drug was prepared by suspending in a 10% Gelucire solution. At the times immediately before drug administration, immediately before glucose solution administration, 15 minutes, 30 minutes, 60 minutes, 90 minutes, and 120 minutes after glucose administration, the whole blood glucose levels was measured from tail vein using a blood glucose meter (AccuChek Active, Roche Diagnostics), and the area under the curve of a temporal blood glucose curve was calculated. From the calculated area under the blood glucose curve, the area under the blood glucose curve of a negative control group to which no glucose solution was administered was subtracted, and inhibitory activity against blood glucose increase of a control group to which only the 10% Gelucire solution and glucose solution were administered was calculated as a percentage, thereby evaluating the glucose tolerance improvement efficacy of a drug.
The results are shown in Table 3, in which the glucose tolerance improvement effect represented at a dose of 10 mg/kg was represented by classifying into three groups, under 30%, more than 30% under 40%, and more than 40%. A significant glucose tolerance improvement effect was identified in 22 compounds on which the experiment was carried out, and among those compounds, 16 compounds represented an excellent in vivo activity of 30% inhibitory dose of 10 mg/kg or less. In the following Table 3, A represents an inhibitory activity more than 40%, B represents an inhibitory activity more than 30% under 40% and C represents an inhibitory activity under 30%.

SMILES	Emax at 0.001 µM [1]	Emax at 0.01 µM [1]	inhibition in vivo at 10 mg/kg [2]
CCc1cnc(N2CCC(CCCOc3cc(F)c(C4=NC[C@H](C)O4)c(F)c3)CC2)nc1 [Example 4, (S)-2-(4-(3-(1-(5-ethylpyrimidin-2-yl)piperidin-4-yl)propoxy)-2,6-difluorophenyl)-5-methyl-4,5-dihydrooxazole]	79.6%	167%	< 30%
Cc1nc(-c2c(F)cc(OCCCC3CCN(c4nc(C(C)C)no4)CC3)cc2F)no1 [Example 39, 3-(2,6-difluoro-4-(3-(1-(3-isopropyl-1,2,4-oxadiazol-5-yl)piperidin-4-yl)propoxy)phenyl)-5-methyl-1,2,4-oxadiazole]	120%	201%	
CC(C)c1noc(N2CCC(CCCOc3cc(F)c(-c4noc(CO)n4)c(F)c3)CC2)n1 [Example 41, (3-(2,6-difluoro-4-(3-(1-(3-isopropyl-1,2,4-oxadiazol-5-yl)piperidin-4-yl)propoxy)phenyl)-1,2,4-oxadiazol-5-yl)methanol]	74.4%	203%	
CCc1cnc(N2CCC(CCCOc3cc(F)c(-c4nnc(C(C)C)o4)c(F)c3)CC2)nc1 [Example 44, 2-(4-(3-(1-(5-ethylpyrimidin-2-yl)piperidin-4-yl)propoxy)-2,6-difluorophenyl)-5-isopropyl-1,3,4-oxadiazole]	493%	830%	
CCc1cnc(N2CCC(CCCOc3cc(F)c(-c4nnc(NC(C)C)o4)c(F)c3)CC2)nc1 [Example 45, 5-(4-(3-(1-(5-ethylpyrimidin-2-yl)piperidin-4-yl)propoxy)-2,6-difluorophenyl)-N-isopropyl-1,3,4-oxadiazol-2-amine]	156%	330%	
CC(C)c1nnc(-c2c(F)cc(OCCCC3CCN(c4ncc(C(F)(F)F)cn4)CC3)cc2F)o1 [Example 48, 2-(2,6-difluoro-4-(3-(1-(5-(trifluoromethyl)pyrimidin-2-yl)piperidin-4-yl)propoxy)phenyl)-5-isopropyl-1,3,4-oxadiazole]	163%	441%	
Cc1nnc(-c2c(F)cc(OCCCC3CCN(c4cnc(Cl)cn4)CC3)cc2F)o1 [Example 49, 2-(4-(3-(1-(5-chloropyrazin-2-yl)piperidin-4-yl)propoxy)-2,6-difluorophenyl)-5-methyl-1,3,4-oxadiazole]	83.4%	121%	
CCc1nnc(-c2c(F)cc(OCCCC3CCN(c4cnc(Cl)cn4)CC3)cc2F)o1 [Example 50, 2-(4-(3-(1-(5-chloropyrazin-2-yl)piperidin-4-yl)propoxy)-2,6-difluorophenyl)-5-ethyl-1,3,4-oxadiazole]	120%	308%	
CCCc1noc(N2CCC(CCCOc3cc(F)c(-c4nnc(C)o4)c(F)c3)CC2)n1 [Example 52, 5-(4-(3-(3,5-difluoro-4-(5-methyl-1,3,4-oxadiazol-2-yl)phenoxy)propyl)piperidin-1-yl)-3-propyl-1,2,4-oxadiazole]	191%	295%	
CCCc1noc(N2CCC(CCCOc3cc(F)c(-c4nnc(CC)o4)c(F)c3)CC2)n1 [Example 53, 5-(4-(3-(3,5-difluoro-4-(5-ethyl-1,3,4-oxadiazol-2-yl)phenoxy)propyl)piperidin-1-yl)-3-propyl-1,2,4-oxadiazole]	94.3%	154%	
CCCc1noc(N2CCC(CCCOc3cc(F)c(-c4nnc(C(C)C)o4)c(F)c3)CC2)n1 [Example 54, 5-(4-(3-(3,5-difluoro-4-(5-isopropyl-1,3,4-oxadiazol-2-yl)phenoxy)propyl)piperidin-1-yl)-3-propyl-1,2,4-oxadiazole]	75.1%	241%	
CCc1nnc(-c2c(F)cc(OCCCC3CCN(c4nc(C(C)C)no4)CC3)cc2F)o1 [Example 56, 5-(4-(3-(4-(5-ethyl-1,3,4-oxadiazol-2-yl)-3,5-difluorophenoxy)propyl)piperidin-1-yl)-3-isopropyl-1,2,4-oxadiazole]	265%	373%	
Cc1nnc(-c2c(F)cc(OCCCC3CCN(c4nc(CC(F)(F)F)no4)CC3)cc2F)o1 [Example 58, 5-(4-(3-(3,5-difluoro-4-(5-methyl-1,3,4-oxadiazol-2-yl)phenoxy)propyl)piperidin-1-yl)-3-(2,2,2-trifluoroethyl)-1,2,4-oxadiazole]	699%		
CC(C)c1nc(N2CCC(CCCOc3cc(F)c(-c4nnc(C(C)C)o4)c(F)c3)CC2)no1 [Example 59, 3-(4-(3-(3,5-difluoro-4-(5-isopropyl-1,3,4-oxadiazol-2-yl)phenoxy)propyl)piperidin-1-yl)-5-isopropyl-1,2,4-oxadiazole]	140%	329%	
CCc1cnc(N2CCC(CCCOc3cc(F)c(-c4nnc(C(C)C)s4)c(F)c3)CC2)nc1 [Example 60, 2-(4-(3-(1-(5-ethylpyrimidin-2-yl)piperidin-4-yl)propoxy)-2,6-difluorophenyl)-5-isopropyl-1,3,4-thiadiazole]	285%	516%	
CCCc1cnc(N2CCC(CCCOc3cc(F)c(-c4nnc(C(C)C)s4)c(F)c3)CC2)nc1 [Example 61, 2-(2,6-difluoro-4-(3-(1-(5-propylpyrimidin-2-yl)piperidin-4-yl)propoxy)phenyl)-5-isopropyl-1,3,4-thiadiazole]	98.1%	186%	
CCCCCc1cnc(N2CCC(CCCOc3cc(F)c(-c4nnc(C(C)C)s4)c(F)c3)CC2)nc1 [Example 62, 2-(2,6-difluoro-4-(3-(1-(5-pentylpyrimidin-2-yl)piperidin-4-yl)propoxy)phenyl)-5-isopropyl-1,3,4-thiadiazole]	88.8%	169%	
CC(C)c1nnc(-c2c(F)cc(OCCCC3CCN(c4ncc(F)cn4)CC3)cc2F)s1 [Example 63, 2-(2,6-difluoro-4-(3-(1-(5-fluoropyrimidin-2-yl)piperidin-4-yl)propoxy)phenyl)-5-isopropyl-1,3,4-thiadiazole]	114%	228%	
CC(C)c1nnc(-c2c(F)cc(OCCCC3CCN(c4ncc(C(F)(F)F)cn4)CC3)cc2F)s1 [Example 64, 2-(2,6-difluoro-4-(3-(1-(5-(trifluoromethyl)pyrimidin-2-yl)piperidin-4-yl)propoxy)phenyl)-5-isopropyl-1,3,4-thiadiazole]	77%	179%	
CC(C)c1nnc(-c2c(F)cc(OCCCC3CCN(c4ccc(C(F)(F)F)cn4)CC3)cc2F)s1 [Example 65, 2-(2,6-difluoro-4-(3-(1-(5-(trifluoromethyl)pyridin-2-yl)piperidin-4-yl)propoxy)phenyl)-5-isopropyl-1,3,4-thiadiazole]	78.1%	189%	
CCc1cnc(N2CCC(CCCOc3cc(F)c(-c4nc(CC)cs4)c(F)c3)CC2)nc1 [Example 66, 4-ethyl-2-(4-(3-(1-(5-ethylpyrimidin-2-yl)piperidin-4-yl)propoxy)-2,6-difluorophenyl) thiazole]	95.6%	120%	
